Reference: paper PMC6051913 (2018)

Experiments:
[1] = system: Bc 1–5 (RNA, riboswitch) GAUGUAACUGAAUGAAAUGGUGAAGGACGGGUCCACUUAUAACGAGAAGCGGAGGGACUGGCCCAAUGAAGCUUCAGCAACCAUUCAUUGCGAUGAAAAGGUGCUAAAUCCAGCAAAGGGAACUUUGGCAGAUAAGUUGUUGAGUAGAGUGUGAGCUCCGUAACUAGUUACAUC; assay: fluorescence titration; conditions: 125 mM KCl, 10 mM MgCl2; 40 mM HEPES pH 7.5, 37 °C, 100 nM RNA, 10 µM DFHBI
[2] = system: Bs 4-4 (RNA, riboswitch) GAUGUAACUGAAUGAAAUGGUGAAGGACGGGUCCACUUGGAAGAUAAGAAGCAAUUCUUAUCAAGAGAAGCAGAGGGACUGGCCCGACGAAGCUUCAGCAACCGGUGUAAUGGCGAUCAGCCAUGACCAAGGUGCUAAAUCCAGCAAGUUGUUGAGUAGAGUGUGAGCUCCGUAACUAGUUACAUC; assay: fluorescence titration; conditions: 125 mM KCl, 10 mM MgCl2; 40 mM HEPES pH 7.5, 37 °C, 100 nM RNA, 10 µM DFHBI

With `C[S+](CC[C@H](N)C(=O)O)C[C@H]1O[C@@H](n2cnc3c(N)ncnc32)[C@H](O)[C@@H]1O` (some centres unmarked) the KD [1] was ~ 1.7 µM and the dissociation constant [2] was 1.0 µM.
